The subject of the series is normal cord blood CD34+ cells engrafted in Rag2−/−γc−/− mice. The series can be described thus: Normal HSPC in vivo model (cord blood CD34+ cell engrafted mice). Further details: species or system mouse. As to conditions: 10 mg/kg versus vehicle. As for the experimental part:
All animal studies were performed in accordance with UCSD and NIH-equivalent ethical guidelines and were approved by the Institutional Animal Care and Use Committee (IACUC protocol # S06015). For all in vivo experiments, animals of both genders were utilized. […] At 7-28 weeks post-transplant (7-36 weeks old), mice were euthanized, and peripheral blood and single cell suspensions of hematopoietic organs were analyzed for human cell engraftment by FACS. […] Treatment was initiated at 8 weeks post-transplant, and at 10 weeks post-transplant, mice were euthanized, and peripheral blood and single cell suspensions of hematopoietic organs were analyzed for human cell engraftment by FACS. […]
Flow cytometric analysis was performed on single cell suspensions from each hematopoietic tissue essentially as for primary patient samples, and frequencies of total live human CD45+ cells, CD45+ CD34+ CD38− Lin− (stem) cells, CD45+ CD34+ CD38+ Lin− (progenitor) cells, and CD45+/CD33+ (leukemic blasts) were determined in each tissue. […]

The values that follow come from patent publication US10675267B2, “Methods for detection and eradication of myeloid leukemia stem cells” (priority 2015, dated 2020).

On to `CC[C@H](OC)[C@@H](C)[C@H]1O[C@@H]1[C@@H](O)[C@H](C)/C=C/C=C(\C)[C@H]1OC(=O)C[C@H](O)CC[C@@](C)(O)[C@@H](OC(C)=O)/C=C/[C@@H]1C` (stereo in doubt) [Formula 17S-FD-895, 17S-FD-895], for which the “total human hematopoietic cell or HSPC survival” value is reported as “no effect”.
